According to patent US20240103006A1 (Roche Diagnostics Operations, Inc., priority 2021, published 2024):

Experiments:
[1] = solvent as listed per probe; cited from earlier work
[2] = UV-vis spectral properties / extinction coefficients in aqueous buffer; type: physicochemical; conditions: merocyanine dyes
Protocol: Absorption spectra were recorded on a Cary 50 UV-vis spectrometer from Varian. All measurements were performed in 1 cm UV-vis disposable cuvettes (BRAND semi-micro) and air-equilibrated solutions at 25±0.1° C. A total assay volume of 1.0 mL was used for each measurement. UV-vis scan spectra were recorded using following parameters: average time 0.05 s; data interval 1 nm; scan rate 1200 nm/min; with base line correction.
Stock solutions of assayed compounds (2-5 mM) were prepared in H2O-DMSO (1:1), stored at −20° C., and diluted to 1.0 mM with buffer before use. The L-Cys stock solution (20.0 mM) was freshly prepared in buffer before the measurements. […]
For a measurement, 1000 μL of buffer and 1-50 μL of probe (1.0 mM) were mixed, and then transferred to a cuvette. Absorbance spectra (250-800 nm) were measured against a blank of the buffer. At least six concentrations of each compound were used to calculate extinction coefficients from the slope of probe concentration vs absorbance plots, using MS Excel software (Microsoft).

SMILES | Spectra: Probe [1] [nm] | Spectra: With Cys [1] | further results
C=CC(=O)OC1=C(/C=C/C2=[N+](CCC)c3ccccc3C2(C)C)CCC/C1=C\C=C1\N(CCC)c2ccccc2C1(C)C | 775 | 515 nm | 
C=CC(=O)Oc1ccc2c(c1)Oc1cc(OC(=O)C=C)ccc1C21OC(=O)c2ccccc21 |  | With Cys 490 nm | 
C=CC(=O)Oc1ccc(/C=C/c2sc3ccccc3[n+]2CC)c2cccnc12 | 387 | 566 nm | 
C=CC(=O)Oc1ccc2c(c1)OC1CCCC(=O)C1=C2 (centres unmarked) |  | 398 nm | 
C=CC(=O)Oc1ccc2c(c1)OC1=C(/C=C/C3=[N+](C)c4ccccc4C3(C)C)CCCC1=C2 | 582 | 674 nm | 
C=CC(=O)Oc1ccc(/C=C/c2cc[n+](C)cc2)cc1 | 335 | 372 nm | 
C=CC(=O)Oc1ccc(/C=C/C2=CC(=C(C#N)C#N)c3ccccc3O2)cc1 | 381 | 557 nm | 
C=CC(=O)Oc1ccc2c(c1)oc(=O)c1c(=O)oc3ccccc3c12 | 350 | 445 nm | 
C=CC(=O)Oc1ccc2cc(/C=C/C3=[N+](C)c4c(ccc5ccccc45)C3(C)C)ccc2c1 |  | With Cys 460 nm | 
C=CC(=O)Oc1ccc2c(c1)Oc1c(ccc3oc(=O)c(C(=O)OCC)cc13)C21OC(=O)c2ccccc21 (centres unmarked) | 332 | 450 nm | 
C=CC(=O)Oc1ccc2cc(/C=C/C3=[N+](C)c4ccccc4C3(C)C)ccc2c1 | 409 | 448 nm | 
C=CC(=O)Oc1ccc(/C=C/C(=O)/C=C(O)/C=C/c2ccc(OC(=O)C=C)c(OC)c2)cc1OC | 400 | 427 nm | 
C=CC(=O)Oc1cccc2c1C(=O)N(Cc1cccc[n+]1CC)C2=O | 360 | 400 nm | 
C=CC(=O)Oc1ccc2c(c1)OC1=C(/C=C/C3CC(=C(C#N)C#N)c4ccccc4O3)CCCC1=C2 (centres unmarked) | 550 | 600 nm | 
CC1(C)C(/C=C/c2ccc(O)cc2)=[N+](CCCCS(=O)(=O)[O-])c2ccccc21 [LZ04, reference compound] |  |  | ε at λmax ([2]; 25 mM HEPES pH 7.4, 1-24 μM): 36.6 mM⁻¹ cm⁻¹; λmax ([2]; 25 mM HEPES pH 7.4, 1-24 μM): 527 nm; ε at λmax ([2]; same buffer at pH 8.0): 45.6 mM⁻¹ cm⁻¹; λmax ([2]; same buffer at pH 8.0): 527 nm
C[N+]1=C(/C=C/c2ccc(O)cc2)C(C)(C)c2ccccc21.[I-] [LZ06, reference compound] |  |  | ε at λmax ([2]; 25 mM HEPES pH 7.4, 1-24 μM): 27 to 37 mM⁻¹ cm⁻¹; λmax ([2]; 25 mM HEPES pH 7.4, 1-24 μM): 520 nm; ε at λmax ([2]; same buffer at pH 8.0): 37 to 53 mM⁻¹ cm⁻¹; λmax ([2]; same buffer at pH 8.0): 520 nm
Cc1cc(/C=C/C2=[N+](CCCCS(=O)(=O)[O-])c3ccccc3C2(C)C)cc(C)c1O [MF51] |  |  | ε at λmax ([2]; 25 mM HEPES pH 7.4, 1-24 μM): 73.9 mM⁻¹ cm⁻¹; λmax ([2]; 25 mM HEPES pH 7.4, 1-24 μM): 550 nm
